{"source": "the OPERA property sets (Mansouri et al. 2018)", "data": [{"conditions": "not given", "units": {"boiling point": "°C", "melting point": "°C"}, "values": [{"smiles": "CN(C)c1ccc(C#N)cc1", "boiling point": 318, "melting point": 74}, {"smiles": "O=C=NCCCCCCN=C=O", "boiling point": 255, "melting point": -67}, {"smiles": "CCC(C)(c1ccc(O)cc1)c1ccc(O)cc1", "melting point": 120}, {"smiles": "CC(C)(C)c1ccc(O)c(N)c1", "melting point": 161}, {"smiles": "Cc1ccccc1CN", "boiling point": 206, "melting point": -30}, {"smiles": "CC(C)(C)C1CCCCC1O", "note": "(stereo not drawn)", "melting point": 45}, {"smiles": "C#CCCOC1CCCCO1", "note": "(stereo not drawn)", "ready biodegradability": "readily biodegradable"}, {"smiles": "CC1CCc2ccccc2C1", "note": "(stereo not drawn)", "boiling point": 221, "melting point": -43.1}, {"smiles": "Brc1c(Br)c(Br)c(Oc2c(Br)c(Br)c(Br)c(Br)c2Br)c(Br)c1Br", "boiling point": 530, "melting point": 295, "ready biodegradability": "not readily biodegradable"}, {"smiles": "COc1ccc2c(c1)c(CC(=O)O)c(C)n2C(=O)c1ccc(Cl)cc1", "melting point": 158}, {"smiles": "CC(C)(CCl)C(=O)O", "melting point": 41.5}, {"smiles": "O=C(c1ccccc1)C(O)c1ccccc1", "note": "(racemic)", "boiling point": 344, "log10 vapour pressure (mmHg)": -5.28, "melting point": 137}, {"smiles": "CCCCCCCCC#N", "boiling point": 224, "melting point": -34.2, "ready biodegradability": "readily biodegradable"}, {"smiles": "C1=CCC(c2ccccc2)CC1", "note": "(stereo not drawn)", "ready biodegradability": "readily biodegradable"}, {"smiles": "CCC(=O)C(CC(C)N1CCOCC1)(c1ccccc1)c1ccccc1", "note": "(stereo not drawn)", "melting point": 75.5}, {"smiles": "O=C(O)CNc1ccccc1", "melting point": 128}, {"smiles": "Cc1ccc([N+](=O)[O-])c(O)c1", "log10 Henry constant (atm·m³/mol)": -4.89, "log10 vapour pressure (mmHg)": -1.7, "melting point": 53, "ready biodegradability": "not readily biodegradable"}, {"smiles": "CCCC(=O)c1ccccc1O", "melting point": 10}, {"smiles": "Cc1cc(C)ncn1", "boiling point": 159, "melting point": 25}, {"smiles": "Oc1c(Cl)ccc(Cl)c1Cl", "melting point": 58}, {"smiles": "CC(=O)c1ccc(C)cc1C", "boiling point": 228}, {"smiles": "O=[N+]([O-])c1ccc(O)c([N+](=O)[O-])c1", "log10 Henry constant (atm·m³/mol)": -7.07, "log10 vapour pressure (mmHg)": -3.41, "melting point": 116, "ready biodegradability": "not readily biodegradable"}, {"smiles": "C1CN(SSN2CCOCC2)CCO1", "melting point": 124, "ready biodegradability": "not readily biodegradable"}, {"smiles": "FC(F)(F)CI", "boiling point": 54.5}, {"smiles": "C=CCNC(N)=O", "melting point": 85}, {"smiles": "CC(Cc1ccc(C(C)(C)C)cc1)CN1CCCCC1", "note": "(stereo not drawn)", "log10 vapour pressure (mmHg)": -3.89}, {"smiles": "O=C(OCC1CCC2OC2C1)C1CCC2OC2C1", "note": "(stereo not drawn)", "melting point": -37}, {"smiles": "CCCCOC(=O)/C=C\\C(=O)OCCCC", "boiling point": 281, "log10 vapour pressure (mmHg)": -3.21, "melting point": -85}, {"smiles": "O[C@@H]1CC[C@H](O)C1", "melting point": 35.5}, {"smiles": "CCCCCSCCCCC", "melting point": -51.3}, {"smiles": "C=COC(=O)CC", "boiling point": 91.2, "melting point": -80, "ready biodegradability": "readily biodegradable"}, {"smiles": "CC(C)c1ccccc1N", "boiling point": 221}, {"smiles": "CCC(C)c1ccc(O)cc1", "note": "(stereo not drawn)", "boiling point": 241, "log10 vapour pressure (mmHg)": -1.43, "melting point": 61.5, "ready biodegradability": "not readily biodegradable"}, {"smiles": "CC(=O)OC(C)CC(C)C", "note": "(stereo not drawn)", "boiling point": 148, "log10 vapour pressure (mmHg)": 0.602, "melting point": -64, "ready biodegradability": "readily biodegradable"}, {"smiles": "Clc1ccc(-c2ccccc2Cl)c(Cl)c1", "log10 Koc (L/kg)": 4.84}, {"smiles": "NC(=S)C(N)=S", "log10 vapour pressure (mmHg)": -5.78}, {"smiles": "O=[N+]([O-])c1ccc(CBr)cc1", "melting point": 99}, {"smiles": "CCCCCCCBr", "boiling point": 179, "log10 vapour pressure (mmHg)": 0.105, "melting point": -58}, {"smiles": "CCCCCCI", "boiling point": 181, "log10 Henry constant (atm·m³/mol)": -1.55, "log10 vapour pressure (mmHg)": 0.147, "melting point": -74.2, "ready biodegradability": "readily biodegradable"}, {"smiles": "c1ccc(-c2ccncc2)nc1", "boiling point": 281, "melting point": 61.5}, {"smiles": "CCC(N)(CO)CO", "melting point": 37.5, "ready biodegradability": "not readily biodegradable"}, {"smiles": "CN1CCCC(CO)C1", "note": "(stereo not drawn)", "boiling point": 142}, {"smiles": "CCCOC(=O)N1CCNCC1", "ready biodegradability": "readily biodegradable"}, {"smiles": "CCOC(=O)C(NC(C)=O)C(=O)OCC", "melting point": 96.3}, {"smiles": "O=C1CCCCCN1", "boiling point": 270, "log10 vapour pressure (mmHg)": -2.8, "melting point": 69.3, "ready biodegradability": "readily biodegradable"}, {"smiles": "CCCCCCCCCCCCCCCC(=O)OCCCC", "melting point": 16.9}, {"smiles": "CCCCC(CC)CNCC(CC)CCCC", "note": "(stereo not drawn)", "boiling point": 281, "log10 vapour pressure (mmHg)": -2, "melting point": -60}, {"smiles": "N#CCCN(CCO)c1ccc(N=Nc2ccc([N+](=O)[O-])cc2Cl)cc1", "melting point": 157}, {"smiles": "CN1CCc2cc3c(cc2C(=O)Cc2ccc4c(c2C1)OCO4)OCO3", "melting point": 208}, {"smiles": "CCOC(=O)CC(C)C(=O)OCC", "note": "(stereo not drawn)", "boiling point": 218}, {"smiles": "Cc1cc(-c2ccc(N=C=O)c(C)c2)ccc1N=C=O", "melting point": 71}, {"smiles": "CCC(=O)C(C)CC", "note": "(stereo not drawn)", "boiling point": 134}, {"smiles": "ClC(COCC(Cl)C(Cl)(Cl)Cl)C(Cl)(Cl)Cl", "note": "(stereo not drawn)", "melting point": -50, "ready biodegradability": "not readily biodegradable"}, {"smiles": "CC(Cl)=C(Cl)Cl", "boiling point": 118}, {"smiles": "Cc1ccc(N)cc1Cl", "boiling point": 243, "melting point": 26}, {"smiles": "Clc1cc(Cl)c(Cl)c(Cl)c1", "log10 Henry constant (atm·m³/mol)": -2.8, "log10 Koa": 5.55, "log10 Koc (L/kg)": 3.2, "log10 vapour pressure (mmHg)": -1.26, "melting point": 54.5}, {"smiles": "O=C1CCCCCCCC1", "melting point": 34}]}, {"conditions": "fish", "values": [{"smiles": "C=C(C)CCCCCCC", "log10 biotransformation half-life (days)": -0.06}, {"smiles": "Cc1ccccc1CN", "log10 BCF": 0.66}, {"smiles": "Brc1c(Br)c(Br)c(Oc2c(Br)c(Br)c(Br)c(Br)c2Br)c(Br)c1Br", "log10 biotransformation half-life (days)": 1.16}, {"smiles": "O=[N+]([O-])c1ccc(O)c([N+](=O)[O-])c1", "log10 BCF": 0.57}, {"smiles": "CCC(C)c1ccc(O)cc1", "note": "(stereo not drawn)", "log10 BCF": 1.31, "log10 biotransformation half-life (days)": -0.84}, {"smiles": "C[n+]1ccc(-c2cc[n+](C)cc2)cc1", "log10 BCF": 0.28}, {"smiles": "ClC(COCC(Cl)C(Cl)(Cl)Cl)C(Cl)(Cl)Cl", "note": "(stereo not drawn)", "log10 BCF": 3.28}, {"smiles": "Clc1cc(Cl)c(Cl)c(Cl)c1", "log10 BCF": 3.59}]}]}
